In article PMC12881670, “Investigation into ligand selectivity and bias at the formyl peptide receptor family” (The Journal of Pharmacology and Experimental Therapeutics, 2025):
Where a SMILES comes first, the peptide text is derived from it. Where no end group is shown, it is not given here. The star is where a group is joined. For = O=C*

Legend:
[1] = target: T1, Hs_FPR1 (Homo sapiens, UniProt P21462); test: BRET receptor-RLuc8 interaction with Venus-mGsi; format: cell-based
T1 construct: expressed in transfected cells
T1 sequence (P21462 1-350): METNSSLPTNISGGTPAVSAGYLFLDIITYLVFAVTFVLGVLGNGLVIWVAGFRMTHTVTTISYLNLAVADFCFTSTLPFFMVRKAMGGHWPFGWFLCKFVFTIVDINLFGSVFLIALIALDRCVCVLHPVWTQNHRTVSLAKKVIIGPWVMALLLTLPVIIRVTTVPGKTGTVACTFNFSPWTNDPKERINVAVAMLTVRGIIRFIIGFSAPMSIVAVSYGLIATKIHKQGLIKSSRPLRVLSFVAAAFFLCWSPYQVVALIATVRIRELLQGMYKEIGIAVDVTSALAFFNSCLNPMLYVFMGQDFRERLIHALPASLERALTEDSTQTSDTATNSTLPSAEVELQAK
Outline: (§1)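 Cells were transiently cotransfected with C-terminal RLuc8-tagged FPR and Venus-mGsi or YFP-Arrestin 3 (1:4), then replated at 24 h and cultured a further 24–48 h. After 30 min in HBSS, coelenterazine h (5 μM final) was added 5 min before compound, with a 10 min incubation at 37 °C. Background-subtracted acceptor/donor ratio (N-BRET) was fitted by 3-parameter log(agonist) regression.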

[2] = target: T1, Hs_FPR1; test: ERK1/2 phosphorylation by Western blotting; format: cell-based; parameters: Emax: dose or concentration left out as unconfirmed
[3] = target: T2, Hs_FPR2 (Homo sapiens, UniProt P25090); test: ERK1/2 phosphorylation by Western blotting; format: cell-based; parameters: Emax: dose or concentration left out as unconfirmed
T2 construct: expressed in transfected cells
T2 sequence (P25090 1-351): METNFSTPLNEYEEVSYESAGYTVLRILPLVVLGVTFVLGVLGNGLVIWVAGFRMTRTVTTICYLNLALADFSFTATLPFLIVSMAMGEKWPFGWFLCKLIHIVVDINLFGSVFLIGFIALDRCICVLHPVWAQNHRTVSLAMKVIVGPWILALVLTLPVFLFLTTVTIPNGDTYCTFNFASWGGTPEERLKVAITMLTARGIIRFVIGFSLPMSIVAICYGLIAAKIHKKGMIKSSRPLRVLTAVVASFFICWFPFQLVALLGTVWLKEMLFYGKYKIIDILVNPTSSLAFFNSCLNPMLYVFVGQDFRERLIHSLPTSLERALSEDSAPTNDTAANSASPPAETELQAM

[4] = target: T3, Mm_Fpr2 (Mus musculus, UniProt O88536); test: ERK1/2 phosphorylation by Western blotting; format: cell-based; parameters: Emax: dose or concentration left out as unconfirmed
T3 construct: expressed in transfected cells
T3 sequence (O88536 1-351): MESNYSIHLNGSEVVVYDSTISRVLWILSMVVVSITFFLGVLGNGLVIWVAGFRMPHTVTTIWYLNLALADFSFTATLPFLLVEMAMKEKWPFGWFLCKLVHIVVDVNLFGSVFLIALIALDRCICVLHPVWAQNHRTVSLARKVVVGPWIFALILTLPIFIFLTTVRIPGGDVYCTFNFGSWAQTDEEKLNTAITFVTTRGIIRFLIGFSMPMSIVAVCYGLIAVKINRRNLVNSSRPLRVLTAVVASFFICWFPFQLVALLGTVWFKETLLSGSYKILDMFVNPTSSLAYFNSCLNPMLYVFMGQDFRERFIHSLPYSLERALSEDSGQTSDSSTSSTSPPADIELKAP

[5] = target: T1, Hs_FPR1; test: BRET receptor-RLuc8 interaction with Arrestin 3-YFP; format: cell-based
Outline: as §1

[6] = target: T4, Mm_Fpr1 (Mus musculus, UniProt P33766); test: as above; format: cell-based
T4 construct: expressed in transfected cells
T4 sequence (P33766 1-364): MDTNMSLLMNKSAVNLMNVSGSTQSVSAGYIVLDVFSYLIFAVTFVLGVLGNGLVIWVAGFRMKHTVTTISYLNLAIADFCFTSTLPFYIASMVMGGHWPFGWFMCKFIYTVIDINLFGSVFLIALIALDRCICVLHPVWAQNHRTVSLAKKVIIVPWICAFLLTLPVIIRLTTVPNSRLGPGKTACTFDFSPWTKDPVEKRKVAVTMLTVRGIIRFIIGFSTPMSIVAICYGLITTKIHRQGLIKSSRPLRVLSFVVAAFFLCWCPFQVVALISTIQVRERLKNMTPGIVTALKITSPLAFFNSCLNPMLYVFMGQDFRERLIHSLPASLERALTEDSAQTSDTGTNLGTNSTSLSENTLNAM
Outline: as §1

[7] = target: T3, Mm_Fpr2; test: as above; format: cell-based
Outline: as §1

[8] = target: T1, Hs_FPR1; test: Competition binding of fluorescent WKYMVm, flow cytometry; settings: for Max Comp (%): maximum proportion of competition with 10 nM K(5/6-FAM)-WKYMVm
Method: (§2) Mean cell fluorescence was then measured for 5000 cells by flow cytometry using either a BD FACScalibur or BD Attune.
(§3) All data were analyzed using GraphPad Prism using the nonlinear regression log(agonist) versus response (3 parameters) function for all assays, except binding, which was analyzed using the One site-FitlogIC50 function. Bias calculations were carried out following IUPHAR guidelines as described,[27]^,[37] and data were presented as the Δ Activity ratio (Log[EmaxB/EC50B])-(Log[EmaxA/EC50A]).

[9] = target: T2, Hs_FPR2; test: as above; settings: for Max Comp (%): maximum proportion of competition with 10 nM K(5/6-FAM)-WKYMVm
Method: as §2, §3

[10] = target: T4, Mm_Fpr1; test: as above
Method: as §2, §3

[11] = target: T3, Mm_Fpr2; test: as above
Method: as §2, §3

[12] = mean, ND = no competition observed
[13] = maximum proportion of competition with 10 nM K(5/6-FAM)-WKYMVm, mean, ND = no competition observed
[14] = log of EC50, phosphorylation of ERK1/2, HEK293 stable cells, mean, ND = no pERK signal detected
[15] = log of IC50, competition with 10 nM K(5/6-FAM)-WKYMVm, HEK293 stable cells, on ice 90 min, mean, ND = no competition observed

Compound	Emax [1]	Emax [2]	Emax [3]	Emax [4]	Emax [5]	Emax [6]	Emax [7]	Max Comp (%) [8, 12]	Max Comp (%) [9, 12]	further results
CSCC[C@H](NC(=O)[C@H](Cc1ccc(O)cc1)NC(=O)[C@H](CCCCN)NC(=O)[C@@H](N)Cc1c[nH]c2ccccc12)C(=O)N[C@H](C(=O)N[C@H](CCSC)C(N)=O)C(C)C [WKYMVm]	112%	104%	93.8%	118%	105%	112%	101%			
CSCC[C@H](NC=O)C(=O)N[C@@H](CC(C)C)C(=O)N[C@@H](Cc1ccccc1)C(=O)N[C@@H](CCCCN)C(=O)O [fMLFK, fMet-Leu-Phe-Lys] (For-MLFK-OH)	104%	112%	74.3%	176%	97.4%	95.2%	72.5%	63.28%	14.72%	IC50 [8]: 586 nM; IC50 [9]: 1.47 nM; IC50 [10]: 8260 nM; Max Comp (%) [10, 13]: 72.44%; IC50 [11]: 828 nM; Max Comp (%) [11, 13]: 30.81%; EC50 [1]: 85.1 nM; EC50 [2, 14]: 6.85 nM; EC50 [3, 14]: 1320 nM; EC50 [4, 14]: 1240 nM; EC50 [5]: 35.5 nM; EC50 [6]: 7240 nM; EC50 [7]: 16200 nM
LESIFRSLLFRVM [MMK1]		40.1%	114%	86.6%				6.82%	100%	Log IC50 (M) [8, 15]: −10.05 M; Log IC50 (M) [9, 15]: −5.88 M; Log EC50 (M) [2, 14]: −6.84 M; Log EC50 (M) [3, 14]: −8.646 M; Log EC50 (M) [4, 14]: −6.482 M
